Results on nine molecules are retold here after ChEMBL document CHEMBL2311254, “Tuning the preference of thiodigalactoside- and lactosamine-based ligands to galectin-3 over galectin-1” (J Med Chem, 2013).

Assay [1] is filed under the species Homo sapiens. In words: Selectivity ratio of Kd for galectin-1 (unknown origin) to Kd for galectin-3 (unknown origin).
For assay [2], the target named is T1, Galectin-1 (Homo sapiens, UniProt P09382). Put plainly: Ratio of Thiodigalactoside Kd to compound Kd for galectin-1 (unknown origin).
In assay [3] the target is T1, Galectin-1. Put plainly: Binding affinity to galectin-1 (unknown origin) by fluorescence polarization assay. In general terms: Polarisation of emitted light reports the rotation of a fluorescent probe.
Assay [4] has as its target T2, Galectin-3 (Homo sapiens, UniProt P17931). In words: Ratio of Thiodigalactoside Kd to compound Kd for galectin-3 (unknown origin).
Assay [5] has as its target T2, Galectin-3. In words: Binding affinity to galectin-3 (unknown origin) by fluorescence polarization assay.
Assay [6] concerns the target T1, Galectin-1. Put plainly: Ratio of LacNAc-beta-OMe Kd to compound Kd for galectin-1 (unknown origin).
For assay [7], the target named is T2, Galectin-3. In words: Ratio of LacNAc-beta-OMe Kd to compound Kd for galectin-3 (unknown origin).
For assay [8], the target named is T2, Galectin-3. Put plainly: Binding affinity to galectin-3 (unknown origin).

As usually defined, the Kd is the free concentration of one partner at which half of the binding sites on the other are occupied at equilibrium, for simple one-to-one binding. A higher Kd goes with weaker binding.

T1 sequence (P09382 whole entry): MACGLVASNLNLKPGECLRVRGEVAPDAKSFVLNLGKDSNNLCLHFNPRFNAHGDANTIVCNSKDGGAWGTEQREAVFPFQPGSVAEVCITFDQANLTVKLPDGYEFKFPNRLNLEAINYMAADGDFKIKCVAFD
T2 sequence (P17931 whole entry): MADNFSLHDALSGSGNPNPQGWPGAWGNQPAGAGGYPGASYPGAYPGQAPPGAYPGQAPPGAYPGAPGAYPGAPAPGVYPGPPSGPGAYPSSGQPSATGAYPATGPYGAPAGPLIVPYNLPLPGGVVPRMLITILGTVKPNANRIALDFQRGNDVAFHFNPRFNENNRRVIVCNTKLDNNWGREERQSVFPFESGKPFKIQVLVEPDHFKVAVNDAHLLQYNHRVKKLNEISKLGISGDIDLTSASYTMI

Consider `OC[C@H]1O[C@@H](S[C@@H]2O[C@H](CO)[C@H](O)[C@H](n3cc(-c4ccccc4)nn3)[C@H]2O)[C@H](O)[C@@H](n2cc(-c3ccccc3)nn2)[C@H]1O`, for which, in assay [1], the Selectivity ratio worked out at 1. Also, the Ratio is 490 in assay [2] and 980 in assay [4]. In addition, the figures for the Kd in assay [3] and in assay [5] were 0.049 µM and 0.044 µM, respectively.

`[N-]=[N+]=NCCCO[C@@H]1O[C@H](CO)[C@@H](O[C@@H]2O[C@H](CO)[C@H](O)[C@H](OCc3ccc(Oc4ccccc4)cc3)[C@H]2O)[C@H](O)[C@H]1NC(=O)c1ccccc1`: the Selectivity ratio in assay [1] worked out at 22. The values for the Ratio in assay [6] and in assay [7] were 0.4 and 8.5, respectively. The Kd in assay [3] was 180 µM; in assay [5] it was 8.1 µM.

As for `OC[C@H]1O[C@@H](S[C@@H]2O[C@H](CO)[C@H](O)[C@H](O)[C@H]2O)[C@H](O)[C@@H](O)[C@H]1O`, the Activity in assay [8] was determined as 43 µM.

Turning to `OC[C@H]1O[C@@H](S[C@@H]2O[C@H](CO)[C@H](O)[C@H](n3cc(-c4cccc(O)c4)nn3)[C@H]2O)[C@H](O)[C@@H](n2cc(-c3cccc(O)c3)nn2)[C@H]1O`, in assay [1], the Selectivity ratio was 0.6. For the same molecule, the Ratio in assay [2] stood at 1850; in assay [4], 1950. Further, the Kd amounted to 0.013 µM in assay [3] and 0.022 µM in assay [5].

As to `OC[C@H]1O[C@@H](S[C@@H]2O[C@H](CO)[C@H](O)[C@H](n3cc(-c4ccc(Oc5ccccc5)cc4)nn3)[C@H]2O)[C@H](O)[C@@H](n2cc(-c3ccc(Oc4ccccc4)cc3)nn2)[C@H]1O`, in assay [1], the Selectivity ratio is 230. Besides, the Ratio was determined as 0.3 in assay [2] and 120 in assay [4]. Besides, the values for the Kd in assay [3] and in assay [5] were 84 µM and 0.36 µM, respectively.

Turning to `[N-]=[N+]=NCCCO[C@@H]1O[C@H](CO)[C@@H](O[C@@H]2O[C@H](CO)[C@H](O)[C@H](OCc3ccc(Oc4ccccc4)cc3)[C@H]2O)[C@H](O)[C@H]1N1C(=O)c2ccccc2C1=O`, in assay [1], the Selectivity ratio amounted to 230. The Ratio came out at 0.3 in assay [6] and 58 in assay [7]. Moreover, the Kd in assay [3] was found to be 280 µM; in assay [5] it was 1.2 µM.

As for `[N-]=[N+]=NCCCO[C@@H]1O[C@H](CO)[C@@H](O[C@@H]2O[C@H](CO)[C@H](O)[C@H](n3cc(-c4ccc(Oc5ccccc5)cc4)nn3)[C@H]2O)[C@H](O)[C@H]1N1C(=O)c2ccccc2C1=O`, the Selectivity ratio in assay [1] turned out to be 13. For the same molecule, the Ratio came to 2.5 in assay [6] and 31 in assay [7]. For the same molecule, the Kd in assay [3] turned out to be 28 µM; in assay [5] it was 2.2 µM.

`CO[C@@H]1O[C@H](CO)[C@@H](O[C@@H]2O[C@H](CO)[C@H](O)[C@H](O)[C@H]2O)[C@H](O)[C@H]1NC(C)=O`: the Selectivity ratio in assay [1] turned out to be 1. This molecule also showed a Kd in assay [5] of 69 µM.

For `[N-]=[N+]=NCCCO[C@@H]1O[C@H](CO)[C@@H](O[C@@H]2O[C@H](CO)[C@H](O)[C@H](n3cc(-c4ccc(Oc5ccccc5)cc4)nn3)[C@H]2O)[C@H](O)[C@H]1NC(=O)c1ccccc1`, in assay [1], the Selectivity ratio amounted to 2.4. Moreover, the Ratio in assay [6] came out at 10; in assay [7], 25. Moreover, the Kd stood at 6.7 µM in assay [3] and 2.8 µM in assay [5].
